Results on 15 compounds are retold here after patent publication US11465990B2, “Heterocyclic antiestrogens” (SUN PHARMA ADVANCED RESEARCH COMPANY LIMITED, priority 2015, dated 2022).

This test relates to MCF-7 cells. Kind of test: MCF-7 cell growth inhibition assay. As to conditions: MCF-7 cells plated in presence of estradiol (1 nM), five days incubation, Presto Blue viability; for inhibition at 1 µM: Homo sapiens, MCF7, 120 h; for % inhibition: at 1 μM. Type of test: cell-based. As to the method:
MCF-7 Cell Growth Inhibition Assay
MCF-7 cells were plated in 96 well plate in the presence of estradiol (1 nM) and incubated overnight. After 24 hours test compound was added at various concentrations and incubated for five days. On the fifth day, cell viability was evaluated using Presto Blue Cell Viability Reagent. Percentage growth inhibition was calculated as follows: 100−[(O.D. of sample)*100/O.D. of vehicle control] wherein O.D. is optical density.

As a reminder, the inhibition is the drop in the measured response relative to a control, in per cent. For the compound `CC1=C(c2cccc(O)c2)C(c2ccc(C#CCNCCCCCCCCCF)cc2)Oc2ccc(O)cc21` (stereo not drawn) [Compound 42], the inhibition at 1 µM came out at 62%.
Same read-out and setting: the figure for `CC1=C(c2cccc(O)c2)C(c2ccc(C#CCNCCCCOCCCCF)cc2)Oc2ccc(O)cc21` (stereo not drawn) [Compound 61] is 39.3%.
Consider `CC1=C(c2cccc(O)c2)C(c2ccc(/C=C/CN3CCC(F)(F)C3)cc2)Oc2ccc(O)cc21` (stereo not drawn) [Compound 58], for which the inhibition at 1 µM stood at 37.9%.
For `CC1=C(c2cccc(O)c2)C(c2ccc(C#CCN3CC[C@@H](CF)C3)cc2)Oc2ccc(O)cc21` (stereo partly drawn) [Compound 64], the inhibition at 1 µM amounted to 47.2%.
As for `CC1=C(c2cccc(O)c2)C(c2ccc(/C=C/CN3CCCCC3)cc2)Oc2ccc(O)cc21` (stereo not drawn) [Compound 12, 3-(3-hydroxyphenyl)-4-methyl-2-[4-((E)-3-piperidin-1-ylpropenyl)phenyl]-2H-chromen-6-ol], the inhibition at 1 µM was determined as 57.6%.
What is called % inhibition is the change of the read-out against control, counted positive when it falls. Regarding `CCCCCCCCCNC/C=C\c1ccc(C2Oc3ccc(O)cc3C(C)=C2c2cccc(O)c2)cc1` (stereo not drawn) [Compound 37], the “% inhibition” value was 57.2%.
For `CC1=C(c2cccc(O)c2)C(c2ccc(/C=C/CN3CCN(C)CC3)cc2)Oc2ccc(O)cc21` (stereo not drawn) [Compound 15], the inhibition at 1 µM stood at 52.2%.
On to `CC1=C(c2cccc(O)c2)C(c2ccc(/C=C\CN3CC[C@@H](C)C3)cc2)Oc2ccc(O)cc21` (stereo partly drawn) [Compound 75], for which the “% inhibition” value was found to be 74.4%.
In the case of `CCCCCCCCCNC/C=C/c1ccc(C2Oc3ccc(O)cc3C(C)=C2c2cccc(O)c2)cc1` (stereo not drawn) [Compound 35], the inhibition at 1 µM was 68.6%.
For `CCCNC1CCN(C)C1` (stereo not drawn) [Compound 31], the inhibition at 1 µM is 19.9%.
Consider `CC1=C(c2cccc(O)c2)C(c2ccc(C#CCN(C)CCCCCCCCCC(F)F)cc2)Oc2ccc(O)cc21` (stereo not drawn) [Compound 69], for which the “% inhibition” value came to 19.8%.
Take `CCCCCCCCCCCCNC/C=C/c1ccc(C2Oc3ccc(O)cc3C(C)=C2c2cccc(O)c2)cc1` (stereo not drawn) [Compound 4]: the inhibition at 1 µM worked out at 56.2%.
Still for that read-out and setting: to `CNCC#Cc1ccc(C2Oc3ccc(O)cc3C(C)=C2c2cccc(O)c2)cc1` (stereo not drawn) [Compound 21] belongs 60.1%; to `CC1=C(c2cccc(O)c2)C(c2ccc(/C=C/CN3CC[C@@H](C)C3)cc2)Oc2ccc(O)cc21` (stereo partly drawn) [Compound 10], 52.3%.
With `CC1=C(c2cccc(O)c2)C(c2ccc(C#CCNCCCCCCCCC(F)F)cc2)Oc2ccc(O)cc21` (stereo not drawn) [Compound 54], the inhibition at 1 µM stood at 67.5%.
